Data: PMC12597212, “Biaryl Phosphate‐Based Inhibitors of the Transcription Factor STAT4” (Chemmedchem, 2025)

What was measured:
STAT5b = biological target: T1, STAT5b (Homo sapiens, UniProt P51692); test: Competitive fluorescence polarization (FP) assay, STAT5b; type: binding; conditions: for IC50: 59-85 nM STAT5b, 10 nM tracer peptide; for Ki: Ki calculated from IC50, mean ± SD, n = 3; for inhibition at 100 µM: compound at 100 µM
T1 sequence (P51692 1-787): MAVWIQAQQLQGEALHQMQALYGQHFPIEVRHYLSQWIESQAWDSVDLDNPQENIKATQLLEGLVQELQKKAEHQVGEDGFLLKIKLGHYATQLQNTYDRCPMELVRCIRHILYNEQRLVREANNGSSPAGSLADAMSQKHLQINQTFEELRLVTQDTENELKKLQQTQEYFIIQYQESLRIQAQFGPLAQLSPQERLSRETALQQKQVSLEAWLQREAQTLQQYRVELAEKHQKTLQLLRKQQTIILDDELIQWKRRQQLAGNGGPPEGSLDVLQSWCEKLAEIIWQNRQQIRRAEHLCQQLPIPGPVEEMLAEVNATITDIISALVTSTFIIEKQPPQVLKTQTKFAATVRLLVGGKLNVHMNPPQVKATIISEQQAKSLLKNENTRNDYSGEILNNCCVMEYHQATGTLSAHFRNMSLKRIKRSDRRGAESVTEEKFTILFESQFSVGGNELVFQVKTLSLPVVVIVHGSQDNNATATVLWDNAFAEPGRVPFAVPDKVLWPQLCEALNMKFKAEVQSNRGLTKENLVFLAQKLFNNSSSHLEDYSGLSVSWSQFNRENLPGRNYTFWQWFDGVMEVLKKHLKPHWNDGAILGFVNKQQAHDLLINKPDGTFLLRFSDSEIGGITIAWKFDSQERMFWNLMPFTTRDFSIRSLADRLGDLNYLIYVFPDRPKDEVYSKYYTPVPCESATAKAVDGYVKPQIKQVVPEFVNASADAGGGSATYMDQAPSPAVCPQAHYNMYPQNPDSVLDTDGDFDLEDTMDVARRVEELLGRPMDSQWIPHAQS
Description: (§1) Fluorescence polarization assays
(§2) STAT4; 5-carboxyfluorescein-GpYDKPHVL for STAT1; 5-carboxyfluorescein-GpYLPQTV- […]
(§3) fluorescent-labeled peptide was added. Samples were transferred to 384-well microtiter plates […]
(§4) Experiments were carried out in triplicate. Percent binding was calculated based on a logarithmic curve fit using OriginPro 8G software. Conversion of IC50 values to Ki-values was […]
(§5) Error bars represent standard deviations. […]
(§6) Experiments were carried out in triplicate. […]

STAT6 = biological target: T2, STAT6 (Homo sapiens, UniProt P42226); test: Competitive fluorescence polarization (FP) assay, STAT6; type: binding; conditions: for IC50: 106 nM STAT6, 10 nM tracer peptide; for Ki: Ki calculated from IC50, mean ± SD, n = 3
T2 sequence (P42226 1-847): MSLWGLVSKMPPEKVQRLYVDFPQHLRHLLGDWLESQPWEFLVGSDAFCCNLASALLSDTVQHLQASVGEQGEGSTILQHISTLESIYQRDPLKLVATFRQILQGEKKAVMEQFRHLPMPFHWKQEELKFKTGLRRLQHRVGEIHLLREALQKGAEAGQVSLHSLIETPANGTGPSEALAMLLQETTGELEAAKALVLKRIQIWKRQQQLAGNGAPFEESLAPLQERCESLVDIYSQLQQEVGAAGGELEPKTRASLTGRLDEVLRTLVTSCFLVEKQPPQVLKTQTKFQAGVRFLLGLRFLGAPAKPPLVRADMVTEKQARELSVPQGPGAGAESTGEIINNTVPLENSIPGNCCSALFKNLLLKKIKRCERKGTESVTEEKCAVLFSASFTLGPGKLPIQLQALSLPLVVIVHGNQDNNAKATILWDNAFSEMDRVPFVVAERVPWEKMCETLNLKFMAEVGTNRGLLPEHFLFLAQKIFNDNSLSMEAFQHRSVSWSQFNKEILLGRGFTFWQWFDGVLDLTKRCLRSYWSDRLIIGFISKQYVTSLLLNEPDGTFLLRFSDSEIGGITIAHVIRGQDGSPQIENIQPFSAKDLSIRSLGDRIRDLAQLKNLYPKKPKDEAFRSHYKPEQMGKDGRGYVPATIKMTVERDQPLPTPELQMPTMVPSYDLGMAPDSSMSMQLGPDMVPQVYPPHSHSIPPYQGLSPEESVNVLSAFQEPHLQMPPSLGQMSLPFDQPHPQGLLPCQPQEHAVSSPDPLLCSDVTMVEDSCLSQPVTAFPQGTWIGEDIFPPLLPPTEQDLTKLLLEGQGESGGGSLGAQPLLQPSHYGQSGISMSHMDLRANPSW
Description: as §1, §2, §3, §4, §5, §6

STAT4 = biological target: T3, STAT4 (Homo sapiens, UniProt Q14765); test: Isothermal titration calorimetry (ITC), binding to STAT4; conditions: 10 µM STAT4, 100 µM ligand, 25 °C, 10 mM Tris pH 8.0, 50 mM NaCl, 1 % DMSO; n = 3
T3 construct: 6xHis; made in house
T3 sequence (Q14765 1-748): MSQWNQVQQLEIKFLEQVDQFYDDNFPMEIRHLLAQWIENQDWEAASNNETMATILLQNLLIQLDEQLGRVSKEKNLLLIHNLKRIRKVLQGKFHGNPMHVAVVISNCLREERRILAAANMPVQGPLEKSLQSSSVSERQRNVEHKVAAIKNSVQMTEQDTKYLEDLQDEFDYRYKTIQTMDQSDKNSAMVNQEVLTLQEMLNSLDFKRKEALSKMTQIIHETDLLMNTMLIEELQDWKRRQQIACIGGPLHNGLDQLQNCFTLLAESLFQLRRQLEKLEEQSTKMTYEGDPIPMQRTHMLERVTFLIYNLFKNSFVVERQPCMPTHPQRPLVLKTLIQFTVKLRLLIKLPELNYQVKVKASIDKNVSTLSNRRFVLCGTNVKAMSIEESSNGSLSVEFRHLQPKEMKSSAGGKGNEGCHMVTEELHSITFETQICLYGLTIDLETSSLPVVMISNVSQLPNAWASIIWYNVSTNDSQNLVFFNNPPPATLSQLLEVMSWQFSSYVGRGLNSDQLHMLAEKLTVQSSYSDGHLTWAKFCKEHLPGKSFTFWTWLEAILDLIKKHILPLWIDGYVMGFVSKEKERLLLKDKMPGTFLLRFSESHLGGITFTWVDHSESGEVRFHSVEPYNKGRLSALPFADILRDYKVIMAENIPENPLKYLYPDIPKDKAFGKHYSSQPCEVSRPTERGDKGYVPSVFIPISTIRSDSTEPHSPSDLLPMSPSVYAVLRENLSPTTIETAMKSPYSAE
Description: as §3, §4
Error bars represent standard deviations.
Isothermal Titration Calorimetry […]
dialysis tubing with a 50 kDa cut-off. ITC experiments were performed using a VP-ITC Micro […]
ITC buffer (final ligand concentration: 100 µM). 1 % (v/v) DMSO was added to the buffers […]
detection of dilution heat. Proteins were degassed before the experiments using a ThermoVac sample degassing station. […]
site binding model was used for data fitting. Figures were generated using GUSSI. Experiments were carried out in triplicate.
General synthetic methods
Method 1: Suzuki coupling […]
three times with ethyl acetate. The combined organic layers were washed with water, after which they were dried over Na2SO4 and filtered. The volatiles were removed under reduced

| Structure (SMILES) | IC50 (STAT5b) [µM] | Ki (STAT5b) [µM] | IC50 (STAT6) [µM] | Ki (STAT6) [µM] | inhibition at 100 µM (STAT5b) [%] | inhibition at 200 µM (STAT5b; compound at 200 µM) [%] | Kd (STAT4) [µM] |
| --- | --- | --- | --- | --- | --- | --- | --- |
| O=P(O)(O)Oc1ccc(-c2ccsc2)cc1 [8a] | 47 | 23 ± 1 | 15.8 | 7.8 ± 0.7 | – | – | – |
| O=P(O)(O)Oc1ccc(-c2cccs2)cc1 [8b] | 16.8 | 8.2 ± 0.4 | 19 | 9.4 ± 0.3 | – | – | – |
| O=P(O)(O)Oc1ccc(-c2nccs2)cc1 [8c] | – | – | 112 | 55 ± 1 | 26 ± 2 | 45 ± 1 | – |
| Cc1cc(-c2ccc(OP(=O)(O)O)c(F)c2)cs1 [8f] | 36 | 18 ± 1 | 34 | 17 ± 2 | – | – | 3.1 ± 1 |
| O=P(O)(O)Oc1ccc2c(c1)Cc1ccccc1-2 [compound 11] | 101 | 49 ± 6 | 23 | 12 ± 1 | – | – | – |
| O=P(O)(O)Oc1ccc2c(c1)oc1ccccc12 [compound 12] | – | – | 53 | 26 ± 4 | 49 ± 1 | – | – |
